PMC5614982, “Impact of Gastric H^+/K^+-ATPase rs2733743 on the Intragastric pH-Values of Dexlansoprazole Injection in Chinese Subjects” (Frontiers in Pharmacology, 2017)
Marks after values point to notes of the source that are not given here.

System: intragastric pH
Assay: 24-h intragastric pH monitoring after single intravenous dexlansoprazole in healthy Chinese subjects
Format: in vivo, human
Conditions: 30 mg iv
Description: Dexlansoprazole injection (30 mg per vial) used in the PK and PD study was manufactured by Nanjing Yoko Pharma Co., Ltd. (Nanjing, China). Subjects received an intravenous infusion of 20 or 30 mg dexlansoprazole injection in sterile saline solution (100 mL/h, 60 min). The study drug was administrated with an infusing pump (SA213, Lifepum, Beijing, China) and given through an intravenous catheter in the antecubital vein opposite to the one from which blood samples were taken.
An ambulatory pH recorder (Orion II, MMS, USA) with a disposable pH catheter (VersaFlex, MMS, USA) was used to monitor intragastric pH. The electrode was placed in water for at least 10 min and then calibrated using standard buffer solutions (pH 1.07 and 7.01) before intubation. Both calibration and intubation processes were conducted under the guidance of MMS Virtual Instructor Program. The catheter, trans nasally placed 10 cm under the lower esophageal sphincter, was identified by a sharp decrease in pH (Wang et al., [2010], [2011]). Subjects were intubated on baseline and the day of dosing at about 7:30 a.m., and the intragastric pH data were recorded continuously for 24 h from 8:00 a.m. Intragastric pH was sampled every second, and the data were stored in a MMS Database program (MMS, USA). The PD parameters including Median (pH), Mean (pH), TpH≥3 (%), TpH≥4 (%), TpH≥6 (%), TpH≥6, and AUC^pH−t were analyzed by the MMS Database program.
Median (pH) and mean (pH) were well-investigated in most studies, and the percentage time of pH ≥ 4 (or pH ≥ 4 holding time ratio) was the benchmark for predicting clinical efficacy of PPIs in treating acid-related diseases (Metz et al., [2009]). Novel parameter TpH≥6 (time to first gastric pH ≥ 6, min) and AUCτ 1-τ 2pH-t (area under pH-time curve from τ1 to τ2, pH·s) were defined to evaluate the velocity and extent of pharmacodynamics with more accuracy. All parameters were calculated and compared according to time periods of 0–24, 0–4, 4–10, 10–14, and 14–24 h post dosing.
The parameter AUCτ 1-τ 2pH-t was calculated as follows:
Where t represented the time duration measured by seconds, AUCτ 1-τ 210-t was the area between the pH line = 10 and the pH-time curve, which was generated by the MMS software.
Baseline-adjusted PD parameters were calculated as follows: for example, ΔAUC^pH−t = AUC^pH−t − AUC^pH−tbaseline, ΔMean (pH) = Mean (pH) − Mean (pH)^baseline, and ΔMedian (pH) = Median (pH) − Median (pH)^baseline.

[1] = CYP2C19 EMs, H+/K+-ATPase Het (n = 8), 0–4 h
[2] = CYP2C19 EMs, H+/K+-ATPase Het (n = 8), 0–24 h
[3] = CYP2C19 EMs, H+/K+-ATPase Het (n = 8), 14–24 h
[4] = CYP2C19 EMs, H+/K+-ATPase Hom (n = 7), 0–4 h
[5] = CYP2C19 EMs, H+/K+-ATPase Hom (n = 7), 0–24 h
[6] = CYP2C19 EMs, H+/K+-ATPase Hom (n = 7), 14–24 h

With `Cc1c(OCC(F)(F)F)ccnc1C[S@@+]([O-])c1nc2ccccc2[nH]1` [dexlansoprazole] the “TpH≥6(%)” value (14–24 h) was 49.2 ± 25.2%, the “ΔMean (pH)” value (14–24 h) was 2.8 ± 1.4 pH and the “ΔMedian (pH)” value (14–24 h) was 3.1 ± 1.9 pH. For the same compound, the “ΔTpH≥3(%)” value (14–24 h) was 60.0 ± 26.0%, the “ΔTpH≥4 (%)” value (14–24 h) was 54.8 ± 28.3% and the “ΔTpH≥6(%)” value (14–24 h) was 35.2 ± 25.6%. For the same compound, the “Mean (pH)” value (CYP2C19 EM (n = 11), 0–4 h) was 5.7 ± 1.6 pH, the “Median (pH)” value (CYP2C19 EM (n = 11), 0–4 h) was 6.2 ± 2.1 pH and the “TpH≥3(%)” value (CYP2C19 EM (n = 11), 0–4 h) was 73.9 ± 21.7%. For the same compound, the “TpH≥4(%)” value (CYP2C19 EM (n = 11), 0–4 h) was 69.3 ± 24.3%, the “TpH≥6(%)” value (CYP2C19 EM (n = 11), 0–4 h) was 58.7 ± 31.9% and the “ΔMean (pH)” value (CYP2C19 EM (n = 11), 0–4 h) was 3.2 ± 1.1 pH. The “ΔMedian (pH)” value (CYP2C19 EM (n = 11), 0–4 h) was 3.9 ± 1.8 pH, the “ΔTpH≥3(%)” value (CYP2C19 EM (n = 11), 0–4 h) was 48.6 ± 24.5% and the “ΔTpH≥4 (%)” value (CYP2C19 EM (n = 11), 0–4 h) was 51.9 ± 17.7%. The “ΔTpH≥6(%)” value (CYP2C19 EM (n = 11), 0–4 h) was 53.0 ± 27.4%, the “Mean (pH)” value (CYP2C19 EM (n = 11), 0–24 h) was 5.7 ± 1.3 pH and the “Median (pH)” value (CYP2C19 EM (n = 11), 0–24 h) was 5.9 ± 1.7 pH. The “TpH≥3(%)” value (CYP2C19 EM (n = 11), 0–24 h) was 80.0 ± 19.5%, the “TpH≥4(%)” value (CYP2C19 EM (n = 11), 0–24 h) was 73.0 ± 23.2% and the “TpH≥6(%)” value (CYP2C19 EM (n = 11), 0–24 h) was 56.4 ± 24.1%. The “ΔMean (pH)” value (CYP2C19 EM (n = 11), 0–24 h) was 2.8 ± 1.1^c pH, the “ΔMedian (pH)” value (CYP2C19 EM (n = 11), 0–24 h) was 3.7 ± 1.5 pH and the “ΔTpH≥3(%)” value (CYP2C19 EM (n = 11), 0–24 h) was 47.9 ± 20.2^c %. The “ΔTpH≥4 (%)” value (CYP2C19 EM (n = 11), 0–24 h) was 50.4 ± 21.3^c %, the “ΔTpH≥6(%)” value (CYP2C19 EM (n = 11), 0–24 h) was 47.4 ± 19.7^c % and the “Mean (pH)” value (CYP2C19 EM (n = 11), 14–24 h) was 4.9 ± 1.7 pH. For the same compound, the “Median (pH)” value (CYP2C19 EM (n = 11), 14–24 h) was 4.5 ± 2.0 pH, the “TpH≥3(%)” value (CYP2C19 EM (n = 11), 14–24 h) was 67.5 ± 34.5% and the “TpH≥4(%)” value (CYP2C19 EM (n = 11), 14–24 h) was 56.3 ± 37.2%. The “TpH≥6(%)” value (CYP2C19 EM (n = 11), 14–24 h) was 37.1 ± 25.0^c %, the “ΔMean (pH)” value (CYP2C19 EM (n = 11), 14–24 h) was 2.0 ± 1.2^c pH and the “ΔMedian (pH)” value (CYP2C19 EM (n = 11), 14–24 h) was 2.1 ± 1.8^c pH. The “ΔTpH≥3(%)” value (CYP2C19 EM (n = 11), 14–24 h) was 47.0 ± 27.6^c %, the “ΔTpH≥4 (%)” value (CYP2C19 EM (n = 11), 14–24 h) was 38.6 ± 27.9^c % and the “ΔTpH≥6(%)” value (CYP2C19 EM (n = 11), 14–24 h) was 21.1 ± 18.0^c %. For the same compound, the “Mean (pH)” value [1] was 4.7 ± 2.4 pH, the “Median (pH)” value [1] was 4.5 ± 2.8 pH and the “TpH≥3(%)” value [1] was 63.7 ± 35.7%. For the same compound, the “TpH≥4(%)” value [1] was 56.9 ± 39.3^c %, the “TpH≥6(%)” value [1] was 39.4 ± 48.2% and the “ΔMean (pH)” value [1] was 2.2 ± 0.8^c pH. The “ΔMedian (pH)” value [1] was 1.9 ± 1.0^a^,^c pH, the “ΔTpH≥3(%)” value [1] was 36.4 ± 20.1% and the “ΔTpH≥4 (%)” value [1] was 35.0 ± 11.7%. The “ΔTpH≥6(%)” value [1] was 33.8 ± 39.0%, the “Mean (pH)” value [2] was 5.1 ± 1.7 pH and the “Median (pH)” value [2] was 4.9 ± 2.1 pH. For the same compound, the “TpH≥3(%)” value [2] was 70.1 ± 26.3%, the “TpH≥4(%)” value [2] was 62.9 ± 33.1% and the “TpH≥6(%)” value [2] was 48.0 ± 32.5%. The “ΔMean (pH)” value [2] was 2.3 ± 0.6^c pH, the “ΔMedian (pH)” value [2] was 2.9 ± 1.6 pH and the “ΔTpH≥3(%)” value [2] was 40.8 ± 11.1^c %. For the same compound, the “ΔTpH≥4 (%)” value [2] was 41.4 ± 17.3^c %, the “ΔTpH≥6(%)” value [2] was 37.3 ± 19.1% and the “Mean (pH)” value [3] was 4.1 ± 2.1 pH. The “Median (pH)” value [3] was 3.5 ± 2.2 pH, the “TpH≥3(%)” value [3] was 53.0 ± 41.0% and the “TpH≥4(%)” value [3] was 44.6 ± 48.0%. For the same compound, the “TpH≥6(%)” value [3] was 30.2 ± 32.6%, the “ΔMean (pH)” value [3] was 1.2 ± 0.4^c pH and the “ΔMedian (pH)” value [3] was 0.5 ± 0.5^c pH. The “ΔTpH≥3(%)” value [3] was 31.5 ± 13.0^c %, the “ΔTpH≥4 (%)” value [3] was 25.1 ± 16.9% and the “ΔTpH≥6(%)” value [3] was 11.6 ± 2.9^c %. The “Mean (pH)” value [4] was 6.6 ± 0.5 pH, the “Median (pH)” value [4] was 7.8 ± 0.1 pH and the “TpH≥3(%)” value [4] was 78.7 ± 10.0%. The “TpH≥4(%)” value [4] was 77.1 ± 11.6^b %, the “TpH≥6(%)” value [4] was 75.5 ± 12.2% and the “ΔMean (pH)” value [4] was 4.3 ± 0.4^b pH. For the same compound, the “ΔMedian (pH)” value [4] was 5.9 ± 0.4^b pH, the “ΔTpH≥3(%)” value [4] was 62.5 ± 11.6% and the “ΔTpH≥4 (%)” value [4] was 67.2 ± 2.4%. The “ΔTpH≥6(%)” value [4] was 70.1 ± 4.5%, the “Mean (pH)” value [5] was 6.8 ± 0.2 pH and the “Median (pH)” value [5] was 7.5 ± 0.4 pH. For the same compound, the “TpH≥3(%)” value [5] was 95.1 ± 1.1%, the “TpH≥4(%)” value [5] was 87.9 ± 4.7% and the “TpH≥6(%)” value [5] was 73.4 ± 3.7%. The “ΔMean (pH)” value [5] was 4.3 ± 0.4^a^,^b pH, the “ΔMedian (pH)” value [5] was 5.4 ± 0.3 pH and the “ΔTpH≥3(%)” value [5] was 77.4 ± 6.3^a^,^b %. For the same compound, the “ΔTpH≥4 (%)” value [5] was 78.0 ± 1.5^a^,^b %, the “ΔTpH≥6(%)” value [5] was 68.7 ± 7.9% and the “Mean (pH)” value [6] was 6.2 ± 0.4 pH. For the same compound, the “Median (pH)” value [6] was 6.3 ± 1.3 pH, the “TpH≥3(%)” value [6] was 96.8 ± 1.2% and the “TpH≥4(%)” value [6] was 80.4 ± 6.2%. The “TpH≥6(%)” value [6] was 51.5 ± 10.9%, the “ΔMean (pH)” value [6] was 3.7 ± 0.5^a^,^b pH and the “ΔMedian (pH)” value [6] was 4.2 ± 0.8^b pH. The “ΔTpH≥3(%)” value [6] was 83.1 ± 5.9^a^,^b %, the “ΔTpH≥4 (%)” value [6] was 72.4 ± 1.5% and the “ΔTpH≥6(%)” value [6] was 45.8 ± 17.4^a^,^b %.
